Patent US11071731B2, “Allosteric modulators of the mu opioid receptor” (Chiromics, LLC, priority 2017, dated 2021)

How the values were obtained:
mu opioid receptor (MOR) [1] = target: T1, mu opioid receptor (MOR) (Homo sapiens, UniProt P35372); assay: PathHunter β-arrestin recruitment assay, PAM mode with EC20 endomorphin-1; assay type: cell-based; settings: for allosteric activity for β-arrestin recruitment: EC20 endomorphin-1 concentration of 4.5 nM
In short: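 Enzyme fragment complementation read-out: β-gal ED fragment fused to receptor, EA fused to β-arrestin, recruitment restoring β-gal activity detected by chemiluminescence. EC50 and percent maximal response derived for each compound.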

mu opioid receptor (MOR) [2] = target: T1, mu opioid receptor (MOR); assay: Hit Hunter cAMP signaling assay (adenylyl cyclase inhibition), PAM mode with EC20 endomorphin-1; assay type: cell-based; settings: for allosteric activity for cAMP signaling: EC20 endomorphin-1 concentration of 0.45 nM
[3] = maximal response for β-arrestin recruitment
[4] = β-arrestin recruitment, read-out: β-arr. EC50
[5] = adenylyl cyclase inhibition, read-out: cAMP EC50
[6] = maximal response for adenylyl cyclase inhibition
[7] = maximal response for β-arrestin recruitment, Table 3
[8] = β-arrestin recruitment, Table 3, read-out: β-arr. EC50
[9] = cAMP EC50, adenylyl cyclase inhibition
[10] = maximal response for adenylyl cyclase inhibition, Table 3
[11] = maximal response, β-arrestin recruitment
[12] = maximal response, adenylyl cyclase inhibition

T1 sequence (P35372 whole entry, the tested form may be a part): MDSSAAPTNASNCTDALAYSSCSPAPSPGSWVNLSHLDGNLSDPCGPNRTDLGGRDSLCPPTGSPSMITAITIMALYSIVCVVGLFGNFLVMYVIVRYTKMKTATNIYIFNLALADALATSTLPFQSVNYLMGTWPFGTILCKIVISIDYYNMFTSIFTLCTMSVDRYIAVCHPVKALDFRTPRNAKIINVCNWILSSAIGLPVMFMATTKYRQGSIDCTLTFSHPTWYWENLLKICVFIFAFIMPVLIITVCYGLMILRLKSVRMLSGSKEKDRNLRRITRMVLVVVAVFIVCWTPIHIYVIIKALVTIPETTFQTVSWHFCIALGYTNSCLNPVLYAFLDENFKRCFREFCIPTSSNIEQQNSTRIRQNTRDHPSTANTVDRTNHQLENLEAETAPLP

Structure (SMILES) | β-arr Max. Resp. (mu opioid receptor (MOR) [1]; [3]) | EC50 (mu opioid receptor (MOR) [1]; [4]) [µM] | EC50 (mu opioid receptor (MOR) [2]; [5]) [nM] | cAMP Max. Resp. (mu opioid receptor (MOR) [2]; [6]) | EC50 (mu opioid receptor (MOR) [2]; [9]) [nM] | other results
O=S(=O)(c1ccc(Cl)cc1)N1CCCCC1c1ccc(OC(F)(F)F)c(Br)c1 (stereo not shown) [compound 43] | F (F represents a maximal response of > 60%) | 0.7 to 2.1 | > 2100 | D (D represents a maximal response of < 40%) | – | –
COc1ccc(C2CCCCN2S(=O)(=O)c2ccccc2)cc1Br (stereo not shown) [compound 14] | F (F represents a maximal response of > 60%) | > 2.1 | – | E (E represents a maximal response of 40-60%) | > 2100 | allosteric activity for β-arrestin recruitment (mu opioid receptor (MOR) [1]): silent allosteric activity; allosteric activity for β-arrestin recruitment (mu opioid receptor (MOR) [1]; listed as Compound No. 14): dual silent allosteric modulation; β-arr. Max Resp. (mu opioid receptor (MOR) [1]; [7]): 111; EC50 (mu opioid receptor (MOR) [1]; [8]): 13.2 µM; allosteric activity for cAMP signaling (mu opioid receptor (MOR) [2]): silent allosteric activity; allosteric activity for cAMP signaling (mu opioid receptor (MOR) [2]; listed as Compound No. 14): dual silent allosteric modulation; EC50 (mu opioid receptor (MOR) [2]; cAMP EC50 (nM), adenylyl cyclase inhibition, Table 3): 9610 nM; cAMP Max Resp. (mu opioid receptor (MOR) [2]; [10]): 43
Fc1cc(C2COCCN2c2nc(Cl)ncc2F)cc(C(F)(F)F)c1 (single isomer, unassigned) [Compound 344] | D (D represents a maximal response of < 40%) | < 0.7 | < 700 | D (D represents a maximal response of < 40%) | – | –
COc1ccc(C2CCCCN2S(=O)(=O)c2ccc(Cl)cc2)cc1C (racemic) [compound 68] | F (F represents a maximal response of > 60%) | > 2.1 | 700 to 2100 | E (E represents a maximal response of 40-60%) | – | –
COc1cccc(CN2CCCCC2c2cccc(C(F)(F)F)n2)c1 (stereo not shown) [compound 156] | F (F represents a maximal response of > 60%) | > 2.1 | – | E (E represents a maximal response of 40-60%) | > 2100 | –
OC1CCC(c2cc(F)cc(C(F)(F)F)c2)N(c2nc(Cl)ncc2F)C1 (stereo not shown) [compound 311] | F (F represents a maximal response of > 60%) | > 2.1 | – | F (F represents a maximal response of > 60%) | 700 to 2100 | –
COc1ccc(C2CCCCN2c2nc(Cl)ncc2F)cc1OC (stereo not shown) [compound 294] | D (D represents a maximal response of < 40%) | > 2.1 | – | F (F represents a maximal response of > 60%) | > 2100 | –
OC1CCN(c2nc(Cl)ncc2F)C(c2cc(F)cc(C(F)(F)F)c2)C1 (stereo not shown) [compound 201] | F (F represents a maximal response of > 60%) | > 2.1 | – | F (F represents a maximal response of > 60%) | > 2100 | –
Fc1ccc(C2CCCCN2c2cccnc2N2CCOCC2)cc1Cl (stereo not shown) [compound 479] | – | > 2.1 | > 2100 | – | – | β-arr Max. Resp. (mu opioid receptor (MOR) [1]; [11]): F (F represents a maximal response of > 60%); cAMP Max. Resp. (mu opioid receptor (MOR) [2]; [12]): D (D represents a maximal response of < 40%)
Fc1cnc(Cl)nc1N1CCCCC1c1ccc2ncccc2c1 (stereo not shown) [compound 326] | D (D represents a maximal response of < 40%) | < 0.7 | – | D (D represents a maximal response of < 40%) | < 700 | –
Oc1cnc2ccc(C3CCCCN3c3nc(Cl)ncc3F)cc2c1 (stereo not shown) [compound 393] | D (D represents a maximal response of < 40%) | < 0.7 | – | D (D represents a maximal response of < 40%) | < 700 | –
Fc1ccc(C2CCCCN2Cc2cncc(Cl)c2)cc1Cl (stereo not shown) [compound 147] | F (F represents a maximal response of > 60%) | > 2.1 | – | D (D represents a maximal response of < 40%) | > 2100 | –
Oc1nccc(N2CCCCC2c2cccc(C(F)(F)F)c2)n1 (stereo not shown) [compound 401] | D (D represents a maximal response of < 40%) | < 0.7 | – | D (D represents a maximal response of < 40%) | < 700 | –
O=S(=O)(c1cc(F)ccc1F)N1CCCC(F)C1c1ccc(F)c(Br)c1 (stereo not shown) [Compound 38] | – | > 2.1 | > 2100 | – | – | –
Fc1ccc(C2CCCCN2Cc2ccnc(Cl)c2)cc1Cl (stereo not shown) [compound 174] | F (F represents a maximal response of > 60%) | 0.7 to 2.1 | – | E (E represents a maximal response of 40-60%) | 700 to 2100 | –
Fc1cc(Cl)cc(C2CCCCN2c2nc(Cl)ncc2F)c1 (single isomer, unassigned) [compound 420] | – | < 0.7 | – | – | – | β-arr Max. Resp. (mu opioid receptor (MOR) [1]; [11]): D (D represents a maximal response of < 40%); cAMP Max. Resp. (mu opioid receptor (MOR) [2]; [12]): D (D represents a maximal response of < 40%)

Structure (SMILES) | β-arr Max. Resp. (mu opioid receptor (MOR) [1]; [3]) | EC50 (mu opioid receptor (MOR) [1]; [4]) [µM] | EC50 (mu opioid receptor (MOR) [2]; [5]) [nM] | cAMP Max. Resp. (mu opioid receptor (MOR) [2]; [6]) | EC50 (mu opioid receptor (MOR) [2]; [9]) [nM] | other results
Fc1cnc(Cl)nc1N1CCCCC1c1ccc(Br)c(C(F)(F)F)c1 (stereo not shown) [compound 287] | F (F represents a maximal response of > 60%) | 0.7 to 2.1 | – | D (D represents a maximal response of < 40%) | < 700 | –
Fc1ccc(C2CCCCN2c2nc(Cl)ncc2F)cc1Cl (single isomer, unassigned) [compound 346] | D (D represents a maximal response of < 40%) | < 0.7 | < 700 | D (D represents a maximal response of < 40%) | – | –
COc1ccc(C2CCCCN2S(=O)(=O)c2ccn(C)n2)cc1Br (stereo not shown) [compound 483] | – | > 2.1 | – | – | > 2100 | β-arr Max. Resp. (mu opioid receptor (MOR) [1]; [11]): D (D represents a maximal response of < 40%); cAMP Max. Resp. (mu opioid receptor (MOR) [2]; [12]): D (D represents a maximal response of < 40%)
Fc1cc(C2CCCCCN2c2nc(Cl)ncc2F)cc(C(F)(F)F)c1 (stereo not shown) [compound 252] | F (F represents a maximal response of > 60%) | > 2.1 | > 2100 | E (E represents a maximal response of 40-60%) | – | –
Cc1noc(C2CCCCN2c2nc(Cl)ncc2F)n1 (stereo not shown) [compound 358] | D (D represents a maximal response of < 40%) | < 0.7 | – | D (D represents a maximal response of < 40%) | < 700 | –
O=S(=O)(c1ccc(Cl)cc1)N1CCCCC1c1cc(F)cc(C(F)(F)F)c1 (racemic) [compound 72] | F (F represents a maximal response of > 60%) | 0.7 to 2.1 | < 700 | D (D represents a maximal response of < 40%) | – | β-arrestin Max Response (mu opioid receptor (MOR) [1]; β-arrestin recruitment, activity switching by MOR PAMs): F (F represents a maximal response of >60%); EC50 (mu opioid receptor (MOR) [1]; β-arrestin recruitment, activity switching by MOR PAMs, read-out: β-arrestin EC50): 0.7 to 2.1 µM; cAMP Max Resp. (mu opioid receptor (MOR) [2]; adenylyl cyclase inhibition, activity switching by MOR PAMs): D (D represents a maximal response of < 40%); EC50 (mu opioid receptor (MOR) [2]; adenylyl cyclase inhibition, activity switching by MOR PAMs, read-out: cAMP EC50): < 700 nM
O=S(=O)(Cc1ccccc1Cl)N1CCCCC1c1cccc(C(F)(F)F)c1 (stereo not shown) [Compound 24] | F (F represents a maximal response of > 60%) | > 2.1 | > 2100 | D (D represents a maximal response of < 40%) | – | –
[2H]C1(c2ccc(F)c(Br)c2)C(F)CCCN1S(=O)(=O)c1cc(F)ccc1F (stereo not shown) [Compound 38] | F (F represents a maximal response of > 60%) | – | – | D (D represents a maximal response of < 40%) | – | –
FC(F)(F)c1cccc(C2CCCCN2Cc2cccc(Br)c2)n1 (stereo not shown) [compound 173] | F (F represents a maximal response of > 60%) | < 0.7 | – | F (F represents a maximal response of > 60%) | < 700 | –
CC1CCN(S(=O)(=O)c2ccc(Cl)cc2)C1c1ccc(F)c(C(F)(F)F)c1 (mixture of isomers) [compound 100] | F (F represents a maximal response of > 60%) | < 0.7 | > 2100 | D (D represents a maximal response of < 40%) | – | β-arr. Max Resp. (mu opioid receptor (MOR) [1]; [7]): 76; EC50 (mu opioid receptor (MOR) [1]; [8]): 0.522 µM; EC50 (mu opioid receptor (MOR) [2]; adenylyl cyclase inhibition, Table 3, read-out: cAMP EC50): > 25000 nM; cAMP Max Resp. (mu opioid receptor (MOR) [2]; [10]): 25
Fc1ccc(C2CCCCN2c2nc(Cl)ncc2F)cc1C(F)F (stereo not shown) [compound 299] | F (F represents a maximal response of > 60%) | 0.7 to 2.1 | – | F (F represents a maximal response of > 60%) | < 700 | –
Fc1ccc(C2C3CCC(C3)N2Cc2cc(Cl)ccc2F)cc1Cl (stereo not shown) [compound 217] | F (F represents a maximal response of > 60%) | – | – | D (D represents a maximal response of < 40%) | – | EC50 (mu opioid receptor (MOR) [1]; β-arr. EC50, β-arrestin recruitment): 0.7 to 2.1 µM; EC50 (mu opioid receptor (MOR) [2]): > 2100 nM
Fc1cnc(Cl)nc1N1CCCCC1c1cc(C(F)(F)F)c2[nH]ncc2c1 (stereo not shown) [compound 352] | D (D represents a maximal response of < 40%) | < 0.7 | – | D (D represents a maximal response of < 40%) | < 700 | –
COc1ccc(C2CC(F)(F)CN2c2nc(Cl)ncc2F)cc1Br (stereo not shown) [compound 466] | – | > 2.1 | > 2100 | – | – | β-arr Max. Resp. (mu opioid receptor (MOR) [1]; [11]): F (F represents a maximal response of > 60%); cAMP Max. Resp. (mu opioid receptor (MOR) [2]; [12]): D (D represents a maximal response of < 40%)
CC1CCN(S(=O)(=O)c2ccc(Cl)cc2)C1c1ccc(F)c(C#N)c1 (mixture of isomers) [Compound 93] | E (E represents a maximal response of 40-60%) | 0.7 to 2.1 | > 2100 | D (D represents a maximal response of < 40%) | – | –
O=S(=O)(c1cccc(Cl)c1F)N1CCCCC1c1cccc(C(F)(F)F)c1 (stereo not shown) [Compound 28] | F (F represents a maximal response of > 60%) | 0.7 to 2.1 | 700 to 2100 | D (D represents a maximal response of < 40%) | – | –
